Laboratory results as given in patent publication US20240239788A1, “SMALL MOLECULE INHIBITORS OF KRAS G12D MUTANT” (Merck Sharp & Dohme LLC, priority 2021, published 2024).
Read-outs that look alike come from different tables or passages of the source.

Columns and labels:
[1] = target: KRAS G12D / Ras binding domain of C-RAF (Homo sapiens (Human), UniProt P01116, G12D); experiment: RAS:RAF-RBD binding assay (cRaf), TR-FRET; settings: biotinylated KRAS G12D, GST-C-RAF RBD
[2] = target: KRAS protein containing G12D mutation (Homo sapiens (Human), UniProt P01116, G12D); experiment: SOS-catalyzed nucleotide exchange assay (GNE), TR-FRET; type: biochemical; settings: biotinylated KRAS G12D, SOS and GTP, 60-minute incubation
Description: Compounds are added to this complex and then after a 60-minute incubation time the mixture is treated with SOS and unlabeled GTP. Small molecule inhibitors stabilize the Bodipy-GDP complex whereas the untreated protein rapidly exchanges Bodipy-GDP for unlabeled GTP resulting in reduced TR-FRET signal.
This solution is referred to as biotinylated KRAS G12D stock solution.

[3] = system: AsPC-1 cells containing homozygous KRAS-G12D activating mutation; experiment: Cellular phospho-ERK assay (Examples 1a-106); type: cell-based; settings: AsPC-1 cells, 2 hours, ratio of p-Erk vs total Erk, read-out: IC50 (nM) pERK (Cell)
Source text: 5% CO? overnight. […] Assay plates were read on a EnVision Multimode Plate Reader (PerkinElmer) and the ratio of p-Erk vs total Erk in each well was used as the final readout.

Chain of KRAS G12D / Ras binding domain of C-RAF (P01116 other isoform, or with tags, fused parts or gaps G12D (already in the parent)): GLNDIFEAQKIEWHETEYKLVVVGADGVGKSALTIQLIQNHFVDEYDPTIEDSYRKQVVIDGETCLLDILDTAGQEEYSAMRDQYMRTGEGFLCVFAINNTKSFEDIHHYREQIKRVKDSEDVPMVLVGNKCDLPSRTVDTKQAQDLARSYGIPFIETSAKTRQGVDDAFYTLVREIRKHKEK
Chain of KRAS protein containing G12D mutation (P01116 other isoform, or with tags, fused parts or gaps G12D (already in the parent)): as above

SMILES	IC50 ([1]; IC50 (nM) (cRaf))	IC50 [2] [nM]	IC50 ([3]; Homo sapiens, ASPC1, 2 h) [nM]	IC50 ([1]; read-out: IC50 (nM) (cRaf))	IC50 [3] [nM]
Cc1cc2[nH]ncc2c(-c2c(F)cc3c(N4C[C@H]5CC[C@@](C)(C4)N5)nc(OC[C@@]45CCCN4C[C@H](F)C5)nc3c2F)c1C(F)(F)F [Ex 86, 6,8-difluoro-2-(((2R,7aS)-2-fluorotetrahydro-1H-pyrrolizin-7a(5H)-yl)methoxy)-7-(6-methyl-5-(trifluoromethyl)-1H-indazol-4-yl)-4-((1S,5R)-1-methyl-3,8-diazabicyclo [3.2.1]octan-3-yl)quinazoline]	268	0.723	213	–	–
CN1CCC[C@H]1COc1nc(N2CC3CCC(C2)N3)c2cc(Cl)c(-c3cc(O)cc4ccccc34)c(F)c2n1 [Ex. 5, 4-(4-(3.8-diazabicyclo[3.2.1]octan-3-yl)-6-chloro-8-fluoro-2-(((S)-1-methylpyrrolidin-2-yl)methoxy)quinazolin-7-yl)naphthalen-2-ol]	–	106	–	17300	6640
Cc1cc(N)nc(-c2c(F)cc3c(N4CC5CCC(C4)N5)nc(OCC4(CN5CCOCC5)CC4)nc3c2F)c1C(F)(F)F [Ex. 87, 6-(4-(3.8-diazabicyclo[3.2.1]octan-3-yl)-6,8-difluoro-2-((1-(morpholinomethyl)cyclopropyl)methoxy)quinazolin-7-yl)-4-methyl-5-(trifluoromethyl)pyridin-2-amine]	–	37.4	–	11400	1340
C[C@]12CC[C@H](CN(c3nc(OC[C@@]45CCCN4C[C@H](F)C5)nc4c(F)c(-c5cc(O)cc6cccc(Cl)c56)c(F)cc34)C1)N2 [Ex. 89, 5-chloro-4-(6,8-difluoro-2-(((2R,7aS)-2-fluorotetrahydro-1H-pyrrolizin-7a(5H)-yl)methoxy)-4-((1S,5R)-1-methyl-3,8-diazabicyclo[3.2.1]octan-3-yl)quinazolin-7-yl)naphthalen-2-ol]	31.8	0.565	46	–	–
C[C@]12CC[C@H](CN(c3nc(OCC4(CN5CC[C@@H](F)C5)CC4)nc4c3CCN(c3cccc5cccc(Br)c35)C4)C1)N2 [Ex. 93, 7-(8-bromonaphthalen-1-yl)-2-((1-(((R)-3-fluoropyrrolidin-1-yl)methyl)cyclopropyl)methoxy)-4-((1S,5R)-1-methyl-3,8-diazabicyclo[3.2.1]octan-3-yl)-5,6,7,8-tetrahydropyrido[3.4-d]pyrimidine]	–	437	–	35300	7130
O=c1oc(-c2cc(O)cc3ccccc23)cc2nc(OCC3(CN4CCOCC4)CC3)nc(N3CC4CCC(C3)N4)c12 [Ex. 95, 4-(3.8-diazabicyclo[3.2.1]octan-3-yl)-7-(3-hydroxynaphthalen-1-yl)-2-((1-(morpholinomethyl)cyclopropyl)methoxy)-5H-pyrano[4.3-d]pyrimidin-5-one]	–	73.4	–	15900	10800
C[C@]12CC[C@H](CN(c3nc(OC[C@@]45CCCN4C[C@H](F)C5)nc4c(F)c(-c5cc(O)cc6cccc(Cl)c56)ncc34)C1)N2 [Ex. 99, 5-chloro-4-(8-fluoro-2-(((2R,7aS)-2-fluorotetrahydro-1H-pyrrolizin-7a(5H)-yl)methoxy)-4-((1S,5R)-1-methyl-3,8-diazabicyclo[3.2.1]octan-3-yl)pyrido[4,3-d]pyrimidin-7-yl)naphthalen-2-ol]	–	2.46	243	57.5	–
CN(C)C[C@@]1(COc2nc(N3C[C@H]4CC[C@@](C)(C3)N4)c3cnc(-c4cc(O)cc5cccc(Cl)c45)c(F)c3n2)CC1(F)F [Ex. 100, 5-chloro-4-(2-(((R)-1-((dimethylamino)methyl)-2,2-difluorocyclopropyl)methoxy)-8-fluoro-4-((1S,5R)-1-methyl-3,8-diazabicyclo[3.2.1]octan-3-yl)pyrido[4,3-d]pyrimidin-7-yl)naphthalen-2-ol]	89.9	1.56	99.8	–	–
CN(C)CC1(COc2nc(N3C[C@H]4CC[C@@](C)(C3)N4)c3nnc(-c4cc(O)cc5ccccc45)cc3n2)CC1 [Ex. 101, 4-(6-((1-((dimethylamino)methyl)cyclopropyl)methoxy)-8-((1S,5R)-1-methyl-3,8-diazabicyclo[3.2.1]octan-3-yl)pyrimido[5,4-c]pyridazin-3-yl)naphthalen-2-ol]	20900	1020	42200	–	–
CN(C)CC1(COc2nc(N3C[C@@H]4CC[C@H]3CN4)c3cc(F)c(-c4cc(O)cc5ccccc45)c(F)c3n2)CC1 [Example 7, 4-(4-((1S,4S)-2,5-diazabicyclo[2.2.2]octan-2-yl)-2-((1-((dimethylamino)methyl)cyclopropyl)methoxy)-6,8-difluoroquinazolin-7-yl)naphthalen-2-ol]	2990	35.5	5020	–	–
CN(C)CC1(COc2nc(N3C[C@@H]4CC[C@](C)(C3)N4)c3cc(F)c(-c4cc(O)cc5ccccc45)c(F)c3n2)CC1 [Example 20, 4-(2-((1-((dimethylamino)methyl)cyclopropyl)methoxy)-6,8-difluoro-4-((1R,5S)-1-methyl-3,8-diazabicyclo[3.2.1]octan-3-yl)quinazolin-7-yl)naphthalen-2-ol]	14400	117	3500	–	–
CN(C)CC1(COc2nc(N3C[C@H]4CC[C@@](C)(C3)N4)c3cc(F)c(-c4cc(O)cc5ccccc45)c(F)c3n2)CC1 [Example 21, 4-(2-((1-((dimethyl-amino)methyl)cyclo-propyl)methoxy)-6,8-difluoro-4-((1S,5R)-1-methyl-3,8-diazabicy-clo[3.2.1]octan-3-yl)quinazolin-7-yl)naphthalen-2-ol]	1980	14.4	636	–	–
COC1CC2CN(c3nc(OCC4(CN(C)C)CC4)nc4c(F)c(-c5cc(O)cc6ccccc56)c(F)cc34)CC1N2 [Example 24, 4-(2-((1-((dimethylamino)meth-yl)cyclopropyl)meth-oxy)-6,8-difluoro-4-(6-methoxy-3,8-di-azabicyclo[3.2.1]octan-3-yl)quinazolin-7-yl)naphthalen-2-olR,R,]	–	280	–	10800	7110
COC1CC2CN(c3nc(OCC4(CN(C)C)CC4)nc4c(F)c(-c5cc(O)cc6ccccc56)c(F)cc34)CC1N2 (stereo not drawn) [Example 25, 4-(2-((1-((dimethyl-amino)methyl)cyclo-propyl)methoxy)-6,8-difluoro-4-(6-methoxy-3,8-diazabicyclo[3.2.1]oc-tan-3-yl)quinazolin-7-yl)naphthalen-2-ol]	20300	454	7070	–	–
COC1CC2CN(c3nc(OCC4(CN(C)C)CC4)nc4c(F)c(-c5cc(O)cc6ccccc56)c(Cl)cc34)CC1N2 [Example 26, 4-(6-chloro-2-((1-((dimethylamino)meth-yl)cyclo-propyl)methoxy)-8-fluoro-4-(R,R,6-methoxy-3,8-diazabi-cyclo[3.2.1]octan-3-yl)quinazolin-7-yl)naphthalen-2-ol]	11800	358	10400	–	–
CN(C)CC1(COc2nc(N3CC4(C)CCC(C)(C3)N4)c3cc(F)c(-c4cc(O)cc5ccccc45)c(F)c3n2)CC1 [Example 32, 4-(4-(1,5-dimethyl-3,8-diazabicy-clo[3.2.1]octan-3-yl)-2-((1-((dimethyl-amino)methyl)cyclo-propyl)methoxy)-6,8-difluoroquinazolin-7-yl)naphthalen-2-ol]	1430	64.2	2260	–	–
CCC12CCC(CN(c3nc(OCC4(CN(C)C)CC4)nc4c(F)c(-c5cc(O)cc6ccccc56)c(F)cc34)C1)N2 (stereo not drawn) [Example 33, 4-(2-((1-((dimethylamino)meth-yl)cyclopro-pyl)methoxy)-4-(1-ethyl-3,8-diazabicy-clo[3.2.1]octan-3-yl)-6,8-difluoroquinazolin-7-yl)naphthalen-2-ol]	5070	88.5	3450	–	–
CN(C)CC1(COc2nc(N3CC4CCC(F)(C3)N4)c3cc(Cl)c(-c4cc(O)cc5ccccc45)c(F)c3n2)CC1 (stereo not drawn) [Example 34, 4-(6-chloro-2-((1-((dimethylamino)meth-yl)cyclopropyl)meth-oxy)-8-fluoro-4-(1-fluoro-3,8-diaza-bicyclo[3.2.1]octan-3-yl)quinaozlin-7-yl)naphthalen-2-ol]	38300	2560	11500	–	–
CN(C)CC1(COc2nc(N3CC4CC[C@@](C)(C3)N4)c3cc(Cl)c(-c4cc(O)cc5ccccc45)c(F)c3n2)CC1 [Example 35, 4-(6-chloro-2-((1-((dimethylamino)meth-yl)cyclopro-pyl)methoxy)-8-fluoro-4-((1S,5R)-1-methyl-3,8-diaza-bicyclo[3.2.1]octan-3-yl)quinazolin-7-yl)naphthalen-2-ol]	1890	27.3	2260	–	–
CN(C)CC1(COc2nc(N3CC4CCC(CC#N)(C3)N4)c3cc(Cl)c(-c4cc(O)cc5ccccc45)c(F)c3n2)CC1 (stereo not drawn) [Example 36, 2-(3-(6-chloro-2-((1-((dimethylamino)meth-yl)cyclopro-pyl)methoxy)-8-fluoro-7-(3-hydroxy-naphthalen-1-yl)quinazolin-4-yl)-3,8-diazabicyclo[3.2.1]oc-tan-1-yl)acetonitrile]	50000	4680	46400	–	–
